In patent US10980232B2, “Herbicidal composition comprising cinmethylin and pyroxasulfone” (BASF Agro B.V., priority 2015, dated 2021):

Key:
Type in all cases: in vivo
Settings in all cases: 20 DAT
[1] = test system: AMARE (Amaranthus retroflexus); experiment: Greenhouse preemergence herbicidal activity, AMARE
Experimental: (§1) The test plants have been seeded, separately for each species, in plastic containers in sandy loamy soil containing 5% of organic matter.
(§2) The containers were irrigated gently to promote germination and growth and subsequently covered with transparent plastic hoods until the plants had rooted.
(§3) The plants have been cultivated due to their individual requirements at 10-25° C. and 20-35° C. The plants were irrigated due to their necessity.
(§4) The racemic mixture (±)-2-exo-(2-Methylbenzyloxy)-1-methyl-4-isopropyl-7-oxabicyclo[2.2.1]heptane was used as herbicide A and formulated as emulsifiable concentrates with an active ingredient concentration of 50 g/l, 100 g/l or 750 g/l respectively.
(§5) Pyroxasulfone (herbicide B) was used as a water dispersible granule (85% WG).
(§6) In the following experiments, the herbicidal activity for the individual herbicidal compositions (solo and mixture applications) was assessed 20 days after treatment (DAT).
The evaluation for the damage on undesired weeds caused by the chemical compositions was carried out using a scale from 0 to 100%, compared to the untreated control plants. […]
(§7) The value E corresponds to the effect (plant damage or injury) which is to be expected if the activity of the individual compounds is additive. If the observed effect is higher than the value E calculated according to the Colby equation, a synergistic effect is present.

[2] = test system: LOLMU (Lolium multiflorum); experiment: Greenhouse preemergence herbicidal activity, LOLMU
Experimental: as §1, §2, §3, §4, §5, §6
(§8) The evaluation for the damage on undesired weeds caused by the chemical compositions was carried out using a scale from 0 to 100%, compared to the untreated control plants. Here, 0 means no damage and 100 means complete destruction of the plants.
(§9) E=X+Y−(X·Y/100) where X=effect in percent using herbicide A at an application rate a; • Y=effect in percent using herbicide B at application rate b; • E=expected effect (in %) of herbicide A+herbicide B at application rates a+b.
as §7

GALAP (Galium aparine) = experiment: Greenhouse preemergence herbicidal activity, GALAP
Experimental: as §1, §2, §3, §4, §5, §6, §8, §9, §7

[3] = test system: LOLMU (Lolium multiflorum); experiment: Greenhouse postemergence herbicidal activity, LOLMU
Experimental: as §1
(§10) For the post emergence treatment, the plants were first grown to the 2 leaf station (GS 12). Here, the herbicidal compositions were suspended or emulsified in water as distribution medium and sprayed using finely distributing nozzels.
as §3, §4, §5, §6, §8, §9, §7

STEME (Stellaria media) [4] = experiment: Greenhouse preemergence herbicidal activity, STEME
Experimental: as §1, §2, §3, §4, §5, §6, §8, §9, §7

AVEFA (Avena fatua) [5] = experiment: Greenhouse postemergence herbicidal activity, AVEFA
Experimental: as §1, §10, §3, §4, §5, §6, §8, §9, §7

[6] = test system: POLCO (Polygonum convolvulus); experiment: Greenhouse preemergence herbicidal activity, POLCO
Experimental: as §1, §2, §3, §4, §5, §6, §8, §9, §7

[7] = test system: AMARE (Amaranthus retroflexus); experiment: Greenhouse postemergence herbicidal activity, AMARE
Experimental: as §1, §10, §3, §4, §5
(§11) In the following experiments, the herbicidal activity for the individual herbicidal compositions (solo and mixture applications) was assessed 20 days after treatment (DAT). […]
as §7

[8] = test system: CHEAL (Chenopodium album); experiment: Greenhouse postemergence herbicidal activity, CHEAL
Experimental: as §1, §10, §3, §4, §5, §6, §8, §9, §7

[9] = test system: ANTAR (Anthemis arvensis); experiment: Greenhouse preemergence herbicidal activity, ANTAR
Experimental: as §1, §2, §3, §4, §5, §6, §8, §9, §7

[10] = test system: ANTAR (Anthemis arvensis); experiment: Greenhouse postemergence herbicidal activity, ANTAR
Experimental: as §1, §10, §3, §4, §5, §6, §8, §9, §7

[11] = test system: ABUTH (Abutilon theoprasti); experiment: Greenhouse preemergence herbicidal activity, ABUTH
Experimental: as §1, §2, §3, §4, §5, §6, §8, §9, §7

[12] = test system: SORHA (Sorghum halepense); experiment: Greenhouse postemergence herbicidal activity, SORHA
Experimental: as §1, §10, §3, §4, §5, §11, §7

AVEFA (Avena fatua) [13] = experiment: Greenhouse preemergence herbicidal activity, AVEFA
Experimental: as §1, §2, §3, §4, §5, §6, §8, §9, §7

[14] = test system: GERDI (Geranium dissectum); experiment: Greenhouse preemergence herbicidal activity, GERDI
Experimental: as §1, §2, §3, §4, §5, §6, §8, §9, §7

STEME (Stellaria media) [15] = experiment: Greenhouse postemergence herbicidal activity, STEME
Experimental: as §1, §10, §3, §4, §5, §6, §8, §9, §7

[16] = test system: CHEAL (Chenopodium album); experiment: Greenhouse preemergence herbicidal activity, CHEAL
Experimental: as §1, §2, §3, §4, §5, §6, §8, §9, §7

[17] = test system: POLCO (Polygonum convolvulus); experiment: Greenhouse postemergence herbicidal activity, POLCO
Experimental: as §1, §10, §3, §4, §5, §11, §7

[18] = pyroxasulfone solo 11.25 g ai/ha
[19] = pyroxasulfone solo 22.5 g ai/ha

Measured: herbicidal activity

Cc1ccccc1CO[C@@H]1C[C@@]2(C(C)C)CC[C@]1(C)O2 (racemic) [herbicide A, (±)-2-exo-(2-Methylbenzyloxy)-1-methyl-4-isopropyl-7-oxabicyclo[2.2.1]heptane]
30%: GALAP (Galium aparine); herbicide A solo 200 g ai/ha | GALAP (Galium aparine); herbicide A solo 300 g ai/ha | AVEFA (Avena fatua) [5]; herbicide A solo 87.5 g ai/ha | [8]; herbicide A solo 62.5 g ai/ha | [16]; herbicide A solo 50 g ai/ha
40%: [10]; herbicide A solo 62.5 g ai/ha | [12]; herbicide A solo 62.5 g ai/ha | AVEFA (Avena fatua) [13]; herbicide A solo 150 g ai/ha | STEME (Stellaria media) [15]; herbicide A solo 175 g ai/ha | [17]; herbicide A solo 250 g ai/ha
65%: [8]; herbicide A solo 87.5 g ai/ha | STEME (Stellaria media) [15]; herbicide A solo 125 g ai/ha
60%: [2]; herbicide A solo 37.5 g ai/ha | AVEFA (Avena fatua) [5]; herbicide A solo 125 g ai/ha | [8]; herbicide A solo 175 g ai/ha
70%: STEME (Stellaria media) [15]; herbicide A solo 250 g ai/ha
75%: [8]; herbicide A solo 500 g ai/ha
25%: AVEFA (Avena fatua) [5]; herbicide A solo 43.75 g ai/ha | [7]; herbicide A solo 250 g ai/ha | STEME (Stellaria media) [15]; herbicide A solo 62.5 g ai/ha
90%: [10]; herbicide A solo 175 g ai/ha | [10]; herbicide A solo 250 g ai/ha
20%: STEME (Stellaria media) [4]; herbicide A solo 25 g ai/ha | STEME (Stellaria media) [4]; herbicide A solo 50 g ai/ha | STEME (Stellaria media) [4]; herbicide A solo 75 g ai/ha | AVEFA (Avena fatua) [13]; herbicide A solo 75 g ai/ha | [16]; herbicide A solo 25 g ai/ha | [16]; herbicide A solo 37.5 g ai/ha | [16]; herbicide A solo 75 g ai/ha
50%: [2]; herbicide A solo 25 g ai/ha | [8]; herbicide A solo 125 g ai/ha | [14]; herbicide A solo 50 g ai/ha | [14]; herbicide A solo 100 g ai/ha | [14]; herbicide A solo 150 g ai/ha
0%: [1]; herbicide A solo 25 g ai/ha | GALAP (Galium aparine); herbicide A solo 25 g ai/ha | GALAP (Galium aparine); herbicide A solo 50 g ai/ha | [3]; herbicide A solo 43.75 g ai/ha | [3]; herbicide A solo 62.5 g ai/ha | [3]; herbicide A solo 87.5 g ai/ha | [3]; herbicide A solo 125 g ai/ha | STEME (Stellaria media) [4]; herbicide A solo 37.5 g ai/ha | [6]; herbicide A solo 37.5 g ai/ha | [6]; herbicide A solo 50 g ai/ha | [6]; herbicide A solo 75 g ai/ha | [6]; herbicide A solo 100 g ai/ha | [6]; herbicide A solo 200 g ai/ha | [6]; herbicide A solo 300 g ai/ha | [9]; herbicide A solo 25 g ai/ha | [9]; herbicide A solo 37.5 g ai/ha | [9]; herbicide A solo 50 g ai/ha | [9]; herbicide A solo 75 g ai/ha | [9]; herbicide A solo 100 g ai/ha | [9]; herbicide A solo 150 g ai/ha | [9]; herbicide A solo 200 g ai/ha | [9]; herbicide A solo 300 g ai/ha | [11]; herbicide A solo 37.5 g ai/ha | [11]; herbicide A solo 75 g ai/ha | [11]; herbicide A solo 150 g ai/ha | [11]; herbicide A solo 300 g ai/ha | AVEFA (Avena fatua) [13]; herbicide A solo 37.5 g ai/ha | AVEFA (Avena fatua) [13]; herbicide A solo 50 g ai/ha | STEME (Stellaria media) [15]; herbicide A solo 43.75 g ai/ha

Cn1nc(C(F)(F)F)c(CS(=O)(=O)C2=NOC(C)(C)C2)c1OC(F)F [pyroxasulfone, 3-[5-(difluoromethoxy)-1-methyl-3-(trifluoromethyl)pyrazol-4-ylmethylsulfonyl]-4,5-dihydro-5,5-dimethyl-1,2-oxazole]
25%: [7]; pyroxasulfone solo 45 g ai/ha
75%: STEME (Stellaria media) [4]; pyroxasulfone solo 10 g ai/ha | [9]; pyroxasulfone solo 80 g ai/ha | AVEFA (Avena fatua) [13]; pyroxasulfone solo 20 g ai/ha | [14]; pyroxasulfone solo 30 g ai/ha | [14]; pyroxasulfone solo 40 g ai/ha
50%: AVEFA (Avena fatua) [5]; [18] | AVEFA (Avena fatua) [5]; [19] | [11]; pyroxasulfone solo 30 g ai/ha | [11]; pyroxasulfone solo 60 g ai/ha | [16]; pyroxasulfone solo 10 g ai/ha
85%: [8]; pyroxasulfone solo 15 g ai/ha | [8]; pyroxasulfone solo 45 g ai/ha | [9]; pyroxasulfone solo 30 g ai/ha
20%: [6]; pyroxasulfone solo 30 g ai/ha | [9]; pyroxasulfone solo 15 g ai/ha
70%: GALAP (Galium aparine); pyroxasulfone solo 20 g ai/ha | [3]; pyroxasulfone solo 15 g ai/ha | [9]; pyroxasulfone solo 40 g ai/ha | [12]; [18]
45%: STEME (Stellaria media) [15]; pyroxasulfone solo 45 g ai/ha
60%: [9]; pyroxasulfone solo 20 g ai/ha | AVEFA (Avena fatua) [13]; pyroxasulfone solo 10 g ai/ha
98%: [2]; pyroxasulfone solo 15 g ai/ha | GALAP (Galium aparine); pyroxasulfone solo 80 g ai/ha | STEME (Stellaria media) [4]; pyroxasulfone solo 15 g ai/ha | STEME (Stellaria media) [4]; pyroxasulfone solo 30 g ai/ha | [11]; pyroxasulfone solo 120 g ai/ha
80%: [2]; pyroxasulfone solo 10 g ai/ha | [6]; pyroxasulfone solo 60 g ai/ha | [6]; pyroxasulfone solo 80 g ai/ha | [8]; [18] | AVEFA (Avena fatua) [13]; pyroxasulfone solo 30 g ai/ha | AVEFA (Avena fatua) [13]; pyroxasulfone solo 40 g ai/ha | STEME (Stellaria media) [15]; pyroxasulfone solo 60 g ai/ha | [17]; pyroxasulfone solo 45 g ai/ha
40%: [10]; pyroxasulfone solo 15 g ai/ha | STEME (Stellaria media) [15]; pyroxasulfone solo 15 g ai/ha
65%: [8]; [19] | AVEFA (Avena fatua) [13]; pyroxasulfone solo 15 g ai/ha
30%: GALAP (Galium aparine); pyroxasulfone solo 10 g ai/ha | [11]; pyroxasulfone solo 20 g ai/ha
55%: [3]; [18] | [3]; [19]
0%: GALAP (Galium aparine); pyroxasulfone solo 15 g ai/ha | [6]; pyroxasulfone solo 15 g ai/ha | [6]; pyroxasulfone solo 20 g ai/ha | [11]; pyroxasulfone solo 10 g ai/ha | STEME (Stellaria media) [15]; [18] | STEME (Stellaria media) [15]; [19]
95%: [1]; pyroxasulfone solo 10 g ai/ha | [8]; pyroxasulfone solo 90 g ai/ha | [8]; pyroxasulfone solo 120 g ai/ha | [9]; pyroxasulfone solo 60 g ai/ha | AVEFA (Avena fatua) [13]; pyroxasulfone solo 60 g ai/ha
90%: [6]; pyroxasulfone solo 120 g ai/ha | [10]; pyroxasulfone solo 60 g ai/ha | [16]; pyroxasulfone solo 20 g ai/ha
